Read-outs that look alike come from different tables or passages of the source.
How the values were obtained:
SARS-CoV-2 3CL protease = SARS-CoV-2 3CL protease (Severe acute respiratory syndrome coronavirus 2, UniProt P0DTD1); test: Inhibitory activity test against SARS-CoV-2 3CL proteases; assay type: biochemical; conditions: read-out: IC50 (50% SARS-CoV-2 3CL protease inhibitory concentration)
SARS-CoV-2 = test: Inhibitory activity of cytopathic effect (CPE) in HEK293T/ACE2-TMPRSS2 cells; assay type: cell-based; conditions: Severe acute respiratory syndrome coronavirus 2, HEK-293T, 72 h, HEK293T/ACE2-TMPRSS2 cells
[1] = cultured 3 days, CellTiter-Glo 2.0 luminescence, read-out: EC50 (50% SARS-CoV-2 infected cell death inhibitory concentration)
[2] = 50% SARS-CoV-2 infected cell death inhibitory concentration, CellTiter-Glo 2.0 after 3 days culture, read-out: EC50

SMILES | IC50 (SARS-CoV-2 3CL protease) [nM] | EC50 (SARS-CoV-2; [1]) [nM] | EC50 (SARS-CoV-2; [2]) [nM]
COc1nc(N2CC[C@@H](C(=O)O)C2)cc2c1c(=O)n(-c1cnc3cc(F)ccn13)c(=O)n2-c1ccc(F)c(Cl)c1 [Compound I-0625] | < 100 | 100 to 1000 | 
CCCn1c(-c2cc(C#N)ccc2Cl)cc2c(c1=O)c(=O)n(-c1cncc(Cl)c1)c(=O)n2Cc1cc(F)c(F)c(F)c1 [Compound I-0686] | 1.7 |  | 22.4
Cn1cnc(Cn2c(=O)c3c4c(c(-c5cc(C#N)ccc5Cl)cc3n(Cc3cc(F)c(F)c(Cl)c3)c2=O)CCO4)n1 [Compound I-0811] | < 100 | < 100 | 
COc1nc(N2CC[C@@H](O)C2)cc2c1c(=O)n(-c1cncc(Cl)c1)c(=O)n2-c1ccc(F)c(Cl)c1 [Compound I-0944] | < 100 | < 100 | 
COc1nc(N2CCC(C)(O)C2)cc2c1c(=O)n(-c1cncc(Cl)c1)c(=O)n2-c1ccc(F)c(Cl)c1 (stereo not drawn) [Compound I-1010] | < 100 | < 100 | 
Cn1c(-c2cc(C#N)ccc2Cl)cc2c(c1=O)c(=O)n(-c1cnc3ccc(Cl)cn13)c(=O)n2Cc1cc(F)c(F)c(F)c1 [Compound I-0741] | 4.3 |  | 105
COc1nc(N2CC[C@@H](C#N)C2)cc2c1c(=O)n(-c1cncc(C(F)F)c1)c(=O)n2-c1ccc(F)c(Cl)c1 [Compound I-0945] | < 100 | < 100 | 
COc1nc2c(=O)n(Cc3ncn(C)n3)c(=O)n(Cc3cc(F)c(F)c(Cl)c3)c2cc1-c1ncc(F)cc1Cl [Compound I-0578] | < 100 | < 100 | 
COc1nc(N2C[C@@H](F)[C@@H](OC)C2)cc2c1c(=O)n(-c1cnc3cc(F)ccn13)c(=O)n2-c1ccc(F)c(Cl)c1 [Compound I-1052] | < 100 | < 100 | 
C=C(C)c1cc2c(c(OC)n1)c(=O)n(-c1cnc3cc(F)ccn13)c(=O)n2-c1ccc(F)c(Cl)c1 [Compound I-1019] | 11 |  | 570
COc1nc(N2C[C@@H]3C[C@H]2CO3)cc2c1c(=O)n(-c1cnc3cc(F)ccn13)c(=O)n2-c1ccc(F)c(F)c1 [Compound I-0978] | 4.8 |  | 11.8
COc1cc(-c2cc(P(C)(C)=O)ccc2Cl)cc2c1c(=O)n(Cc1ncn(C)n1)c(=O)n2Cc1cc(F)c(F)c(F)c1 [Compound I-0893] | 36 |  | 2330
COc1nc(N2CC[C@@H](C#N)C2)cc2c1c(=O)n(-c1cnc3cc(F)ccn13)c(=O)n2Cc1cc(F)c(F)c(F)c1 [Compound I-0732] | < 100 | < 100 | 
COc1nc(N2CC[C@@H](C#N)C2)cc2c1c(=O)n(-c1cncc(F)c1)c(=O)n2-c1ccc(F)c(F)c1 [Compound I-0990] | 6.8 |  | 8.89
Cn1cnc(Cn2c(=O)c3c(cc(-c4cc(C#N)ccc4Cl)n4ccnc34)n(Cc3cc(F)c(F)c(F)c3)c2=O)n1 [Compound I-0642] | 3 |  | 640
COc1nc(N2CC[C@@H](C#N)C2)cc2c1c(=O)n(-c1cncc(C#N)c1)c(=O)n2-c1ccc(F)c(F)c1 [Compound I-0984] | < 100 | < 100 | 
COc1nc(N2CC[C@@H](C#N)C2)cc2c1c(=O)n(-c1cncc(C#N)c1)c(=O)n2-c1ccc(F)c(Cl)c1 [Compound I-0939] | < 100 | < 100 | 
COc1cc(-c2cc3c(C#N)c[nH]c3cc2Cl)cc2c1c(=O)n(Cc1ncn(C)n1)c(=O)n2Cc1cc(F)c(F)c(F)c1 [Compound I-0902] | 8.2 |  | 104
COc1nc(-c2c(Cl)ccc3c2CCN(C)C3=O)cc2c1c(=O)n(Cc1ncn(C)n1)c(=O)n2Cc1cc(F)c(F)c(Cl)c1 [Compound I-0874] | 9.4 |  | 39.2
Cn1cnc(Cn2c(=O)c3c4nccnc4c(N4CC(F)C4)cc3n(Cc3cc(F)c(F)c(Cl)c3)c2=O)n1 [Compound I-0573] | < 100 | < 100 | 
COc1nc(N2CC[C@H](CO)C2)cc2c1c(=O)n(-c1cnc3cc(F)ccn13)c(=O)n2-c1ccc(F)c(Cl)c1 [Compound I-0749] | < 100 | < 100 | 

From patent US20240400560A1, “BICYCLIC HETEROCYCLIC DERIVATIVE HAVING VIRAL GROWTH INHIBITORY ACTIVITY AND PHARMACEUTICAL COMPOSITION CONTAINING SAME” (Shionogi & Co., Ltd., priority 2021, published 2024)
